{"source": "patent US9783527B2", "about": "“Indazole ureas and method of use” (AbbVie Inc., priority 2014, dated 2017)", "data": [{"target": "human Nav1.7 (Homo sapiens (Human), UniProt Q15858)", "sequence (Q15858 whole entry)": "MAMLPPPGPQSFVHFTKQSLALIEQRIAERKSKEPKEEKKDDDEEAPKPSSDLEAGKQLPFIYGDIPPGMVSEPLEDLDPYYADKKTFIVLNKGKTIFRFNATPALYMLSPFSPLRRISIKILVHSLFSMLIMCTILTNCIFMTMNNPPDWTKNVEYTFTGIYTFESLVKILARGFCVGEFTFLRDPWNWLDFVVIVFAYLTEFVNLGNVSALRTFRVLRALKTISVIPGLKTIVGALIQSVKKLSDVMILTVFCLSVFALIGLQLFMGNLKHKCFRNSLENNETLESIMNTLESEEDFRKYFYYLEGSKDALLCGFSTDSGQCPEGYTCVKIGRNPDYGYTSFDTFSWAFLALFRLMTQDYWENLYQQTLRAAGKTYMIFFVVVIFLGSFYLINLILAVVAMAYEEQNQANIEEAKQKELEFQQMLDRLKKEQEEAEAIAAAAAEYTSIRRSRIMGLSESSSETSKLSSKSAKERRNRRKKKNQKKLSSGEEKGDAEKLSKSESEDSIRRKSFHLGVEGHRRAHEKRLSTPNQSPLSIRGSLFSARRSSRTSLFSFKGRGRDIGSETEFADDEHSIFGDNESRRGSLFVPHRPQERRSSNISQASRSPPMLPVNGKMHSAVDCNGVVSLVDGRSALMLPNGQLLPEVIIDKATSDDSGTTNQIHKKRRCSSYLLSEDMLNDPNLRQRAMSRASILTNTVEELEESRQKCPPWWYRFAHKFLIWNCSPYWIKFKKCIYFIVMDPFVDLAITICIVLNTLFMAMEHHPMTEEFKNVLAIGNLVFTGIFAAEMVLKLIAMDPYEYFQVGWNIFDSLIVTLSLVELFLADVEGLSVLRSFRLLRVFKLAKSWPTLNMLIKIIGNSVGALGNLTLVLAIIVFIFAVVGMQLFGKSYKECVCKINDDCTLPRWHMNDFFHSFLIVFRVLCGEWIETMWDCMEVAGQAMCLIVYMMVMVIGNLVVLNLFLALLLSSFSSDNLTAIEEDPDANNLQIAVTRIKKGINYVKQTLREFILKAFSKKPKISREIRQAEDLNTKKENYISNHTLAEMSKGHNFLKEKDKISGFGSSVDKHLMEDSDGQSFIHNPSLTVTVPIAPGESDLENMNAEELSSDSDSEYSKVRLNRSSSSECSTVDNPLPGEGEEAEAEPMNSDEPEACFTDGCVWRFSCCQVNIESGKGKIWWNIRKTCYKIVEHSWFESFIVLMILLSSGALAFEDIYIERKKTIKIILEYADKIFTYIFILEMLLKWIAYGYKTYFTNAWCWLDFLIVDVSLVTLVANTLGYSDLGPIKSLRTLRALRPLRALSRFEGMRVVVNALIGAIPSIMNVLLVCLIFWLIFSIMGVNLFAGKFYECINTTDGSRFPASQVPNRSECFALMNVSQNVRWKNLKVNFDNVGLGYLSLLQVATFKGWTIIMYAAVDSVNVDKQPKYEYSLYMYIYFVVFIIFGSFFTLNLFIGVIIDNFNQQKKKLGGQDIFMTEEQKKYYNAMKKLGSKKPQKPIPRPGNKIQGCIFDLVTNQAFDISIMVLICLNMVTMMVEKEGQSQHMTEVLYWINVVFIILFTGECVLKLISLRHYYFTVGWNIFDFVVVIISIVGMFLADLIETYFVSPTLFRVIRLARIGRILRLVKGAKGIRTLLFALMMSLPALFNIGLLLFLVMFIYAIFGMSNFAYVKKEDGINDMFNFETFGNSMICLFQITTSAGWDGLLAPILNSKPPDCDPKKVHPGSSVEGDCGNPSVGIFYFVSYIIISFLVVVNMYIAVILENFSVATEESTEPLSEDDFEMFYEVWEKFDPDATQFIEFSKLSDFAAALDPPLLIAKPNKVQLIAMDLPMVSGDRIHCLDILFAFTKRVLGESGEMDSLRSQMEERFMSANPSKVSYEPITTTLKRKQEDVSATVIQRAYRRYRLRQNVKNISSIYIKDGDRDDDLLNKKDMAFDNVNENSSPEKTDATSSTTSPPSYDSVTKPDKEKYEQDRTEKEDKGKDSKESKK", "test": "FRET-based membrane potential assay, recombinant human sodium channel Nav1.7", "format": "cell-based", "conditions": "HEK293 cells stably expressing recombinant human Nav1.7; depolarization with veratridine (EC80) + scorpion venom", "protocol": "FRET-Based Membrane Potential Assays.\nRecombinant, Human Sodium Channel, Nav1.7.\nTwo days prior to the experiment, frozen HEK293 cells stably expressing recombinant human Nav1.7 were quickly thawed and plated at 25,000 cells/well in growth medium [DMEM (Invitrogen #11965) with 10% HI FBS (Invitrogen #10082), 2 mM glutamine, 100 units/mL penicillin, 0.1 mg/mL streptomycin (PSG, Sigma #G1146), and 500 μg/mL Geneticin (Invitrogen #10131)] in black-walled, clear-bottom 384-well poly-D-lysine-coated assay plates (Greiner Bio-One, Frickenhausen, Germany) and incubated in a humidified 5% CO2 incubator at 37° C. On the day of the assay, medium was removed by aspiration, and cells were washed with assay buffer [HBSS (Invitrogen, Carlsbad, Calif.) containing 20 mM HEPES (Invitrogen, Carlsbad, Calif.)]. After washing, 30 μL assay buffer containing the fluorescent voltage-sensor probe CC2-DMPE (Invitrogen, Carlsbad, Calif.) at 20 μM and 0.01% pluronic F-127 (Invitrogen, Carlsbad, Calif.) was added to the cells. Cells were incubated for 40 minutes at room temperature in the dark. Following the incubation, the cells were washed and 30 μL assay buffer containing 2.5 μM DiSBAC2(3) substrate (Invitrogen, Carlsbad, Calif.) and 0.5 mM VABSC-1 (Invitrogen, Carlsbad, Calif.) was added to the cells. The cells were incubated for 90 minutes at room temperature in the dark. Fluorescence readings were made using a FLIPR®^TETRA (Molecular Devices, Sunnyvale Calif.) equipped with voltage-sensor probe optics. At the start of each experiment the optimal (EC80) concentration of depolarizing agent (veratridine) was determined by testing a dilution curve of assay buffer containing veratridine (Sigma-Aldrich, St. Louis, Mo.) and 1 mg/mL scorpion venom (SVqq, from Leiurus quinquestriatus; Sigma-Aldrich, St. Louis, Mo.). […] Test compounds in the daughter plate were diluted to (˜3×) solutions in assay buffer immediately before assaying. Using the FLIPR®^TETRA, 20 μL of the (3×) compound solutions were first added to the cells, then 20 μL of depolarizing solution (3×EC80 veratridine+SVqq) were added 3 minutes later to activate the channel. Changes in fluorescence were measured at wavelengths of 440-480 nm and 565-625 nm over the course of the experimental run. Membrane depolarization was expressed as a ratio of the maximum F440-480 nm/F565-625 nm reading above average baseline F440-480 nm/F565-625 nm reading. IC50 values were calculated from curve fits of the ratio data using a four-parameter logistic Hill equation (Accelrys Assay Explorer 3.3 Client, Accelrys, San Diego, Calif.) with percent inhibition plotted against compound concentration.", "units": {"IC50": "nM"}, "values": [{"smiles": "CC(C)[C@H]1CCCCN1C(=O)CN1CCN(c2cccc3c2cnn3-c2ccccc2F)C1=O", "note": "[Example 124, 1-[1-(2-fluorophenyl)-1H-indazol-4-yl]-3-{2-[(2R)-2-isopropylpiperidin-1-yl]-2-oxoethyl}imidazolidin-2-one]", "IC50": 1200}, {"smiles": "CC(C)[C@@H]1CCCN1C(=O)CN1CCN(c2cccc3c2cnn3-c2ccccc2F)C1=O", "note": "[Example 125, 1-[1-(2-fluorophenyl)-1H-indazol-4-yl]-3-{2-[(2S)-2-isopropylpyrrolidin-1-yl]-2-oxoethyl}imidazolidin-2-one]", "IC50": 1410}, {"smiles": "CC(C)[C@H]1CCCN1C(=O)CN1CCN(c2cccc3c2cnn3-c2ccccc2F)C1=O", "note": "[Example 126, 1-[1-(2-fluorophenyl)-1H-indazol-4-yl]-3-{2-[(2R)-2-isopropylpyrrolidin-1-yl]-2-oxoethyl}imidazolidin-2-one]", "IC50": 343}, {"smiles": "O=C1N(CC(=O)N2C[C@H](F)C[C@@H]2c2cc(F)ccc2F)CCN1c1cccc2c1cnn2-c1ccccc1F", "note": "[Example 127, 1-{2-[(2R,4R)-2-(2,5-difluorophenyl)-4-fluoropyrrolidin-1-yl]-2-oxoethyl}-3-[1-(2-fluorophenyl)-1H-indazol-4-yl]imidazolidin-2-one]", "IC50": 1560}, {"smiles": "O=C1N(CC(=O)N2CCC[C@@H]2c2ccccc2)CCN1c1cccc2c1cnn2-c1ccccc1F", "note": "[Example 128, 1-[1-(2-fluorophenyl)-1H-indazol-4-yl]-3-{2-oxo-2-[(2R)-2-phenylpyrrolidin-1-yl]ethyl}imidazolidin-2-one]", "IC50": 746}, {"smiles": "O=C1N(CC(=O)N2CCCC2c2ccccc2)CCN1c1cccc2c1cnn2-c1ccccc1F", "note": "(stereo not shown) [Example 129, 1-[1-(2-fluorophenyl)-1H-indazol-4-yl]-3-[2-oxo-2-(2-phenylpyrrolidin-1-yl)ethyl]imidazolidin-2-one]", "IC50": 403}, {"smiles": "O=C1N(c2ccccn2)CCN1c1cccc2c1cnn2-c1ccccc1F", "note": "[Example 130, 1-[1-(2-fluorophenyl)-1H-indazol-4-yl]-3-(pyridin-2-yl)imidazolidin-2-one]", "IC50": 1850}, {"smiles": "O=C(OC1CCCCC1)N1CCN(c2cccc3c2cnn3-c2ccccc2F)C1=O", "note": "[Example 131, cyclohexyl 3-[1-(2-fluorophenyl)-1H-indazol-4-yl]-2-oxoimidazolidine-1-carboxylate]", "IC50": 286}, {"smiles": "CC(C)CCCC(=O)CN1CCN(c2cccc3c2cnn3-c2ccccc2F)C1=O", "note": "[Example 132, 1-[1-(2-fluorophenyl)-1H-indazol-4-yl]-3-(6-methyl-2-oxoheptyl)imidazolidin-2-one]", "IC50": 713}, {"smiles": "CC(C)CCCC(O)CN1CCN(c2cccc3c2cnn3-c2ccccc2F)C1=O", "note": "(stereo not shown) [Example 133, 1-[1-(2-fluorophenyl)-1H-indazol-4-yl]-3-(2-hydroxy-6-methylheptyl)imidazolidin-2-one]", "IC50": 525}, {"smiles": "O=C(CC1CCCC1)CN1CCN(c2cccc3c2cnn3-c2ccccc2F)C1=O", "note": "[Example 134, 1-(3-cyclopentyl-2-oxopropyl)-3-[1-(2-fluorophenyl)-1H-indazol-4-yl]imidazolidin-2-one]", "IC50": 1260}, {"smiles": "O=C1N(CC(O)CC2CCCC2)CCN1c1cccc2c1cnn2-c1ccccc1F", "note": "(stereo not shown) [Example 135, 1-(3-cyclopentyl-2-hydroxypropyl)-3-[1-(2-fluorophenyl)-1H-indazol-4-yl]imidazolidin-2-one]", "IC50": 904}, {"smiles": "O=C(CC1CCCCC1)CN1CCN(c2cccc3c2cnn3-c2ccccc2F)C1=O", "note": "[Example 136, 1-(3-cyclohexyl-2-oxopropyl)-3-[1-(2-fluorophenyl)-1H-indazol-4-yl]imidazolidin-2-one]", "IC50": 928}, {"smiles": "O=C(OC1CCCC1)N1CCN2C(=O)N(c3cccc4c3cnn4-c3ccccc3F)CC2C1", "note": "(stereo not shown) [Example 137, cyclopentyl 2-[1-(2-fluorophenyl)-1H-indazol-4-yl]-3-oxohexahydroimidazo[1,5-a]pyrazine-7(1H)-carboxylate]", "IC50": 2300}, {"smiles": "O=C1N(c2cncnc2)CCN1c1cccc2c1cnn2-c1ccccc1F", "note": "[Example 138, 1-[1-(2-fluorophenyl)-1H-indazol-4-yl]-3-(pyrimidin-5-yl)imidazolidin-2-one]", "IC50": 3310}, {"smiles": "O=C1N(CC(O)CC2CCCCC2)CCN1c1cccc2c1cnn2-c1ccccc1F", "note": "(stereo not shown) [Example 139, 1-(3-cyclohexyl-2-hydroxypropyl)-3-[1-(2-fluorophenyl)-1H-indazol-4-yl]imidazolidin-2-one]", "IC50": 2410}, {"smiles": "O=C(CC1CCC1)CN1CCN(c2cccc3c2cnn3-c2ccccc2F)C1=O", "note": "[Example 140, 1-(3-cyclobutyl-2-oxopropyl)-3-[1-(2-fluorophenyl)-1H-indazol-4-yl]imidazolidin-2-one]", "IC50": 878}, {"smiles": "O=C1N(CC(O)CC2CCC2)CCN1c1cccc2c1cnn2-c1ccccc1F", "note": "(stereo not shown) [Example 141, 1-(3-cyclobutyl-2-hydroxypropyl)-3-[1-(2-fluorophenyl)-1H-indazol-4-yl]imidazolidin-2-one]", "IC50": 1160}, {"smiles": "O=C(CC1CC2CCC1C2)CN1CCN(c2cccc3c2cnn3-c2ccccc2F)C1=O", "note": "(stereo not shown) [Example 142, 1-[3-(bicyclo[2.2.1]hept-2-yl)-2-oxopropyl]-3-[1-(2-fluorophenyl)-1H-indazol-4-yl]imidazolidin-2-one]", "IC50": 2000}, {"smiles": "O=C(CN1CCN(c2cccc3c2cnn3-c2ccccc2F)C1=O)c1ccccc1", "note": "[Example 143, 1-[1-(2-fluorophenyl)-1H-indazol-4-yl]-3-(2-oxo-2-phenylethyl)imidazolidin-2-one]", "IC50": 874}, {"smiles": "O=C(CN1CCN(c2cccc3c2cnn3-c2ccccc2F)C1=O)C1CCCC1", "note": "[Example 144, 1-(2-cyclopentyl-2-oxoethyl)-3-[1-(2-fluorophenyl)-1H-indazol-4-yl]imidazolidin-2-one]", "IC50": 2100}, {"smiles": "CC(=O)CN1CCN(c2cccc3c2cnn3-c2ccccc2F)C1=O", "note": "[Example 145, 1-[1-(2-fluorophenyl)-1H-indazol-4-yl]-3-(2-oxopropyl)imidazolidin-2-one]", "IC50": 6230}, {"smiles": "C=CCCC(C)(O)CN1CCN(c2cccc3c2cnn3-c2ccccc2F)C1=O", "note": "(stereo not shown) [Example 146, 1-[1-(2-fluorophenyl)-1H-indazol-4-yl]-3-(2-hydroxy-2-methylhex-5-en-1-yl)imidazolidin-2-one]", "IC50": 3120}, {"smiles": "O=C(CN1CCN(c2cccc3c2cnn3-c2ccccc2F)C1=O)c1ccc(F)nc1", "note": "[Example 147, 1-[1-(2-fluorophenyl)-1H-indazol-4-yl]-3-[2-(6-fluoropyridin-3-yl)-2-oxoethyl]imidazolidin-2-one]", "IC50": 1050}, {"smiles": "CCC(O)(CC(C)C)CN1CCN(c2cccc3c2cnn3-c2ccccc2F)C1=O", "note": "(stereo not shown) [Example 148, 1-(2-ethyl-2-hydroxy-4-methylpentyl)-3-[1-(2-fluorophenyl)-1H-indazol-4-yl]imidazolidin-2-one]", "IC50": 2280}, {"smiles": "COc1cccc(C(=O)CN2CCN(c3cccc4c3cnn4-c3ccccc3F)C2=O)c1", "note": "[Example 149, 1-[1-(2-fluorophenyl)-1H-indazol-4-yl]-3-[2-(3-methoxyphenyl)-2-oxoethyl]imidazolidin-2-one]", "IC50": 2970}, {"smiles": "O=C(CN1CCN(c2cccc3c2cnn3-c2ccccc2F)C1=O)c1cccc(F)c1", "note": "[Example 150, 1-[1-(2-fluorophenyl)-1H-indazol-4-yl]-3-[2-(3-fluorophenyl)-2-oxoethyl]imidazolidin-2-one]", "IC50": 3160}, {"smiles": "O=C(CN1CCN(c2cccc3c2cnn3-c2ccccc2F)C1=O)c1ccc(C(F)(F)F)cc1", "note": "[Example 151, 1-[1-(2-fluorophenyl)-1H-indazol-4-yl]-3-{2-oxo-2-[4-(trifluoromethyl)phenyl]ethyl}imidazolidin-2-one]", "IC50": 20000}]}]}
